From paper PMC7594079, “Insights into the Function and Evolution of Taste 1 Receptor Gene Family in the Carnivore Fish Gilthead Seabream (Sparus aurata)” (International Journal of Molecular Sciences, 2020)

These compounds were tested against T1, saT1R2b/R3 (Sparus aurata, UniProt A0A671TG56+A0A671VZB3) (assay: saT1R2b/R3 heterodimer transiently transfected in stable pGL3-NFAT-luc-HEK293 (Cl.3) cells, luciferase reporter). Settings: as molarity; decimal comma.
T1 sequence (A0A671TG56 20-821): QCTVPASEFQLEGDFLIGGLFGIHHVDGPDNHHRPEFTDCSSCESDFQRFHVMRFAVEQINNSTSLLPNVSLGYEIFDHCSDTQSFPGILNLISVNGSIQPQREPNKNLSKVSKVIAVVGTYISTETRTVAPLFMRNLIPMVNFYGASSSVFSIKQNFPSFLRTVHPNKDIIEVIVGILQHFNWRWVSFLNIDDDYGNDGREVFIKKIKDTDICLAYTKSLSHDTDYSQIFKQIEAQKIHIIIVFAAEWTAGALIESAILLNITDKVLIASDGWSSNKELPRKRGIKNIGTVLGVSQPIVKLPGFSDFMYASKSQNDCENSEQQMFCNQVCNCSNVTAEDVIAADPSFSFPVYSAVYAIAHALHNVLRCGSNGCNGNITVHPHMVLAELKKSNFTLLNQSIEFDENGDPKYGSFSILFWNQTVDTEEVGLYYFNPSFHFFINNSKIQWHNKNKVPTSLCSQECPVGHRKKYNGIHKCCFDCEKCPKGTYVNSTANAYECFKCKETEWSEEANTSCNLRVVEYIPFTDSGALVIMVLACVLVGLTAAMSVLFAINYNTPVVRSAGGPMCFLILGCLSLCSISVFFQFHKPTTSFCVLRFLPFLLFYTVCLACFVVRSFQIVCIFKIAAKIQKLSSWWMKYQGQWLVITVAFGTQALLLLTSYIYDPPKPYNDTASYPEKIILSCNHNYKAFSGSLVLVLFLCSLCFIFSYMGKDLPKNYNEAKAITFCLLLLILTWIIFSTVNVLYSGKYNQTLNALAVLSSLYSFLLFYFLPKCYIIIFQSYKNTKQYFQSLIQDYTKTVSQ
T1 sequence (A0A671VZB3 24-860): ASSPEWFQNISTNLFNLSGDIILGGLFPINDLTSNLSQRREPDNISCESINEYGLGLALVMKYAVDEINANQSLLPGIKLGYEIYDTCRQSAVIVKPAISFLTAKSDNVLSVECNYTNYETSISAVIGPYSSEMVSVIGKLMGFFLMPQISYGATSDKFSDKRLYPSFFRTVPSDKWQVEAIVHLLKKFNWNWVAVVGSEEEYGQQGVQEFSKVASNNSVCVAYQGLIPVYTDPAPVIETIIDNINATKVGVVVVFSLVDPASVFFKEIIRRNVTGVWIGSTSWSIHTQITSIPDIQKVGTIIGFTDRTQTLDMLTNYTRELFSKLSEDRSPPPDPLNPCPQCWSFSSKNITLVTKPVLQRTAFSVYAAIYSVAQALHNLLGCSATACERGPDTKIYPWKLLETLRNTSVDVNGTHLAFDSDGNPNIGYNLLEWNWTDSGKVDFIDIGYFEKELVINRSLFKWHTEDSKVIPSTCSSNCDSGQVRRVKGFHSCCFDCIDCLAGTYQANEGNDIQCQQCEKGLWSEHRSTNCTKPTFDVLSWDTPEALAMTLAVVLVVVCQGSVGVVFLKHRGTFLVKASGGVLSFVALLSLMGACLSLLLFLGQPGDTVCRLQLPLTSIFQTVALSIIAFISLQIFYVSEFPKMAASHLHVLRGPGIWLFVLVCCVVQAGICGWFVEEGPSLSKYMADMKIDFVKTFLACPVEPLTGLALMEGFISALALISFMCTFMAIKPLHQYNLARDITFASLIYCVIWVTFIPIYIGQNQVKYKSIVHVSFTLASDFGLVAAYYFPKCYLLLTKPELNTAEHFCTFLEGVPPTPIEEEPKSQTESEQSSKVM
Type: cell-based
Description: Figure 6 Amino acid Log-dose response curves of activation in heterologous co-transfected (Cl.3) cells with saT1R1/3 (green dots), saT1R2a/3 (red squares) and saT1R2b/3 (black triangles) heterodimers. Evaluation of L-AA responses was based on the RLU mean ± SEM of four independent determinations normalized to the mean response of the same transfections stimulated with reduced assay medium (Basal Medium Eagle w/o L-glutamate (BME) + 1% FBS), and expressed as the percentage relative to basal levels (BL).
HEK293 cells were cultured in standard medium DMEM (Gibco, Thermo Fisher, Saint Louis, MO, USA) containing 10% FBS, penicillin (100 U/mL) and streptomycin ([…]) at 37 °C, with a humidified atmosphere at 5% CO2. pGL3-NFAT-luc-HEK293 stable clones were generated by co-transfections of pGL3-NFAT-luc and tgCMV/HyTK plasmids (50:1), the latter harboring the hygromycin phosphotransferase gene, using Lipofectamine LTX according to supplier’s protocols (Thermo Fisher, Saint Louis, MO, USA). Initially, HEK293 cells were selected using DMEM containing 400 μg/mL hygromycin B (Sigma, Darmstadt, Germany) in 24-well plates for two weeks; 24 colonies were further grown out in 96-well plates under reduced hygromycin selection (200 µg/mL) for three weeks. Potentially resistant NFAT-luc-HEK293 clones (n = 22) were validated after incubation in assay medium (DMEM + 1% FBS) containing PMA or Ionomycin (Sigma, Darmstadt, Germany) for 18 h (triplicates, 50,000 cells/well). Luciferase activity was quantified with ONE-Glo™ EX Reagent Kit (Promega, Madison, WI, USA) using a 96-microplate TECAN reader (Trading AG, Switzerland).
saT1Rs (saT1R1, saT1R2a, saT1R2b saT1R3) and saGαi1-2 genes were RT-PCR amplified using 5’ and 3’ flanking primers carrying HindIII and XhoI restriction sites, respectively. Gel-purified fragments were cloned into pGEM-T Easy vectors, re-sequenced, digested and subcloned into pcDNA™3 (Invitrogen, Carlsbad, CA, USA). Effective saT1R cloning into pcDNA™3 was further verified by HindIII/XhoI digestion. Transient co-transfections were done in 6-well plates (confluence ~70–80%) using 100 μL of reduced serum medium (Opti-MEM, Gibco, Thermo Fisher, Saint Louis, MO, USA) containing 150 ng of each selected pcDNA™3 construct, 1:10 charge ratio of Enhanced Green Fluorescent expressing construct (EGFP; positive control), and pBluescript II SK (+) vector DNA (Addgene, Watertown, MA, USA) up to 1 µg of totally transfected DNA. Following 24 h incubation, cells were washed with fresh standard medium and plated in polylysine treated plates for additional 24 h. Cells were then stimulated with L-AAs and sugar compounds for 18 h in a reduced assay medium (BME w/o L-glutamate; Gibco, Thermo Fisher, Saint Louis, MO, USA) + 1% FBS), to prevent unspecific Ca^2+/NFAT signaling activation and potential saT1R desensitization. All L-AAs and sugars used for in vitro experiments were obtained from Merck KGaA (Darmstadt, Germany).

Question: How did the “T1R2b/R3 [MSD] maximum stimulation dose” value turn out when `C[C@H](N)C(=O)O` [Ala, Alanine] was run?
Answer: 1,00 × 10^-1 M

Question: Which “T1R2b/R3 [MSD] maximum stimulation dose” value does the source give for `N=C(N)NCCC[C@H](N)C(=O)O` [Arg, Arginine] here?
Answer: 1,00 × 10^-5 M

Question: For `NC(=O)C[C@H](N)C(=O)O` [Asn, Asparagine], which “T1R2b/R3 [MSD] maximum stimulation dose” value is on record?
Answer: 1,00 × 10^-1 M

Question: For `N[C@@H](CC(=O)O)C(=O)O` [Asp, Aspartic acid], which “T1R2b/R3 [MSD] maximum stimulation dose” value is on record?
Answer: 1,00 × 10^-5 M

Question: `N[C@@H](CS)C(=O)O` [Cys, Cysteine] was tested. Which “T1R2b/R3 [MSD] maximum stimulation dose” value did it give?
Answer: 1,00 × 10^-4 M

Question: Which “T1R2b/R3 [MSD] maximum stimulation dose” value does the source give for `NC(=O)CC[C@H](N)C(=O)O` [Gln, Glutamine] here?
Answer: 1,00 × 10^-1 M

Question: `N[C@@H](CCC(=O)O)C(=O)O` [Glu, Glutamic acid] was tested. Which “T1R2b/R3 [MSD] maximum stimulation dose” value did it give?
Answer: 1,00 × 10^-2 M

Question: For `NCC(=O)O` [Gly, Glycine], which “T1R2b/R3 [MSD] maximum stimulation dose” value is on record?
Answer: 1,00 × 10^-1 M

Question: Which “T1R2b/R3 [MSD] maximum stimulation dose” value does the source give for `N[C@@H](Cc1c[nH]cn1)C(=O)O` [His, Histidine] here?
Answer: 1,00 × 10^-5 M

Question: `CC[C@H](C)[C@H](N)C(=O)O` [Ile, Isoleucine] was tested. Which “T1R2b/R3 [MSD] maximum stimulation dose” value did it give?
Answer: 1,00 × 10^-1 M

Question: Which “T1R2b/R3 [MSD] maximum stimulation dose” value does the source give for `CC(C)C[C@H](N)C(=O)O` [Leu, Leucine] here?
Answer: 1,00 × 10^-1 M

Question: With `NCCCC[C@H](N)C(=O)O` [Lys, Lysine] as the compound, how does the “T1R2b/R3 [MSD] maximum stimulation dose” value read?
Answer: 1,00 × 10^-3 M

Question: With `CSCC[C@H](N)C(=O)O` [Met, Methionine] as the compound, how does the “T1R2b/R3 [MSD] maximum stimulation dose” value read?
Answer: 1,00 × 10^-1 M

Question: With `N[C@@H](Cc1ccccc1)C(=O)O` [Phe, Phenylalanine] as the compound, how does the “T1R2b/R3 [MSD] maximum stimulation dose” value read?
Answer: 1,00 × 10^-2 M

Question: How did the “T1R2b/R3 [MSD] maximum stimulation dose” value turn out when `O=C(O)[C@@H]1CCCN1` [Pro, Proline] was run?
Answer: 1,00 × 10^-1 M

Question: How did the “T1R2b/R3 [MSD] maximum stimulation dose” value turn out when `N[C@@H](CO)C(=O)O` [Ser, Serine] was run?
Answer: 1,00 × 10^-1 M

Question: With `C[C@@H](O)[C@H](N)C(=O)O` [Thr, Threonine] as the compound, how does the “T1R2b/R3 [MSD] maximum stimulation dose” value read?
Answer: 1,00 × 10^-1 M

Question: Which “T1R2b/R3 [MSD] maximum stimulation dose” value does the source give for `N[C@@H](Cc1c[nH]c2ccccc12)C(=O)O` [Trp, Tryptophan] here?
Answer: 1,00 × 10^-3 M

Question: Which “T1R2b/R3 [MSD] maximum stimulation dose” value does the source give for `N[C@@H](Cc1ccc(O)cc1)C(=O)O` [Tyr, Tyrosine] here?
Answer: 1,00 × 10^-3 M

Question: How did the “T1R2b/R3 [MSD] maximum stimulation dose” value turn out when `CC(C)[C@H](N)C(=O)O` [Val, Valine] was run?
Answer: 1,00 × 10^-1 M

Same assay, conditions: saT1R2b/R3; tested 1–500 mM

Question: Which “concentration with significant activation” value does the source give for `OC[C@H]1OC(O)[C@H](O)[C@@H](O)[C@@H]1O` (stereo partly drawn) [D-Glucose] here?
Answer: 200 mM
